Columns and labels:
mitochondrial complex I = molecular target: T1, mitochondrial complex I (Rattus norvegicus, UniProt Q66HF1); assay: Complex I activity (rotenone-sensitive NADH/Co-Q1 oxidation/reduction) in NO donor-treated mitochondria; format: biochemical
T1 construct: Rat heart mitochondria were isolated using differential centrifugation; from tissue; host or cells: rat heart mitochondria (male Sprague-Dawley rats)
Experimental: Rat heart mitochondria were isolated using differential centrifugation (Tompkins, et al. (2005) Biochim. Biophys. Acta PMID: 16278076). Protein was determined by the Folin-phenol method (Lowry, et al. (1951) J. Bio. Chem. 193:265-75) against a standard curve constructed using bovine serum albumin. Mitochondrial incubations and all subsequent steps were performed in the dark. One mg of mitochondrial protein was suspended in 1 mL of mitochondrial respiration buffer (Tompkins, et al. (2005) supra) containing respiratory substrates glutamate (5 mM), malate (2.5 mM) and succinate (5 mM). […] Samples were centrifuged (5 minutes, 14,000×g), and supernatants removed. The pellets were then resuspended in 1 mL of respiration buffer, and centrifuged again. Pellets were frozen in liquid N2 for subsequent analysis. For ONOO^− treatments, 4 μL of 25 mM ONOO^− stock (100 μM final concentration) was added the cap of the reaction tube, the cap quickly closed and the tube shaken immediately. The process was then repeated twice at 30 second intervals, for a total of 3 additions. Mitochondria were then pelleted, washed, and frozen as for S-nitrosoglutathione samples. Complex I activity was assayed as the rotenone-sensitive oxidation of NADH, at 340 nm in the presence of coenzyme Q1 (Borutaite, et al. (2000) supra). […]

[1] = tested on: isolated adult rat cardiomyocytes; assay: Mitochondrial H+ leak in cardiomyocytes (respiration divided by TMRE fluorescence) after ischemia-reperfusion; format: cell-based; conditions: doses that protect cardiomyocyte viability
Experimental: Cardiomyocyte respiration rate was measured with an oxygen electrode, and membrane potential with the fluorescent dye TMRE (20 nM) in a fluorimeter. H^+ leak is essentially the amount of work the respiratory chain must do to maintain a given membrane potential, and experimentally is derived by dividing respiration by TMRE fluoresence. […] All data are means±SEM, N>3.
Adult rat cardiomyocytes were prepared by collagenase perfusion according to standard methods (Dai, et al. (2001) supra), yielding ˜4×10^6 cells per heart, >80% rod-shaped and viable. Incubations were in a shaking water bath at 37° C., each utilizing 5×10^5 cells in 5 mL of the KH buffers described below. For the control, cells were incubated for 2 hours in oxygenated KH buffer (95/5 O2/CO2). For ischemia-reperfusion treatment, cells were subjected to 30 minutes in oxygenated KH buffer, 1 hour in “ischemic” KH buffer (95/5 N2/CO2, pH 6.5, no glucose), and 30 minutes in oxygenated KH buffer. […] At the end of each protocol, cell viability was assayed (Trypan blue), and mitochondrial function determined (measurement of ΔΨm with the fluorescent probe TMRE, respiration with an O2 electrode, and S-nitrosothiol content by chemiluminescence and biotin-switch.

T1 sequence (Q66HF1 24-727, one chain of several): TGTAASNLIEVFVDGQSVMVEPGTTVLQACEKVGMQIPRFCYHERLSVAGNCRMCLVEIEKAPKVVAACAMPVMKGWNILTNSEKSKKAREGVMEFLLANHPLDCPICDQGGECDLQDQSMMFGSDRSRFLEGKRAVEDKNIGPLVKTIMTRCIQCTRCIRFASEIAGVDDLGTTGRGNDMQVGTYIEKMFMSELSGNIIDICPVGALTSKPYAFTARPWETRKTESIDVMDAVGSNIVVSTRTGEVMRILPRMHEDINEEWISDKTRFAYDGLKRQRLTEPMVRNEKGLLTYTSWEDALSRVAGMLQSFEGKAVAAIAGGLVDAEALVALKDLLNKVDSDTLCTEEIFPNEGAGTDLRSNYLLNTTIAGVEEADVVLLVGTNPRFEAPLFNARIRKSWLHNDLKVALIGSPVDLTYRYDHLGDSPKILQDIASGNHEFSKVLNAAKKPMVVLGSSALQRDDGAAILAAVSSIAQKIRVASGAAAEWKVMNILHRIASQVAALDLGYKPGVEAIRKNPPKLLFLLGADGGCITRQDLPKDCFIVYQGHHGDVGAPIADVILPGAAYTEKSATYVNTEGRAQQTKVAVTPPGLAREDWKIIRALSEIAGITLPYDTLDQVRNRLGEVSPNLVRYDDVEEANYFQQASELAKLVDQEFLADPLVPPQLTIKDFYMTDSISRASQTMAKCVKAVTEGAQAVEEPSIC

N[C@@H](CCC(=O)N[C@@H](CSN=O)C(=O)NCC(=O)O)C(=O)O [S-nitrosoglutathione]
complex I inhibition (mitochondrial complex I; S-nitrosoglutathione treatment of mitochondria, exposure to light): complex I inhibition that was reversible by exposure of mitochondria to light
maximum complex I inhibition (mitochondrial complex I; dose response 10-500 μM): 20-25%
effect on increase in mitochondrial H+ leak induced by ischemia-reperfusion [1]: prevent large increases in H^+ leak
